Source: patent US5457106A, “Pyridine derivatives, their production and use” (Takeda Chemical Industries, Ltd., priority 1991, dated 1995)
Structures can show the parent of a compound that is named as a salt.

How the values were obtained:
[1] = test system: brewer's yeast induced pyrexia; assay: Antipyretic activity (brewer's yeast induced pyrexia); assay type: in vivo, rat (DS line); conditions: 50 mg/kg, orally; for Antipyretic activity, .increment. °C.: at peak time
Procedure: Antipyretic Activity Six male DS line rats, 7 weeks old, weighing 200 to 240 g (Nihon Clea) per one group were used. According to the method of Winder et al. (J. Pharmac. Exp. Ther. 138: 405 (1963)), a suspension of 15% brewer's yeast (Sigma) in physiological saline (1 ml/100 g, b.w.) was injected subcutaneously at 16 hours before measurement of the body temperature to induce pyrexia. After injection of yeast, only water was provided, and each rat was bred separately in a five duplicate cage. At 16, 17 and 18 hours after yeast injection, the rectal temperature was measured by a thermistor thermometer (Takara Kogyo K.K.), and this was taken as the basal body temperature. […] Animals having the body temperature of not lower than 38.5° C. at 18 hours after yeast injection were selected, and a test compound was administered orally (1 ml/100 g, b.w.). As a control, only the solvent was provided. Upon administration, the body temperature of the control group and that of the test compound-administered group were adjusted to the same temperature. The rectal temperature was measured every hour till five hours after administration.

[2] = test system: Rat carrageenin pedal edema; assay: Rat carrageenin pedal edema inhibitory activity; assay type: in vivo, rat (Jcl: SD); conditions: 50 mg/kg, orally, 3 hours after carrageenin; for inhibition in vivo at 50 mg/kg: Rattus norvegicus, po, 3 h, read-out: Inhibitory percentage (carrageenin pedal edema)
Procedure: Rat Carrageenin Pedal Edema Inhibitory Activity A Jcl: SD male rat (6 weeks old, weight 160-220 g) was used. After the mesurement of the volume of the dexter hind limb foot pad, a test compound suspended in 5% gum arabic solution was administered orally. Immediately after the administration, water was further administered orally so that the total administration volume of liquid became 5 ml/rat. After one hour, 0.05 ml of 1% carrageenin suspension in physiological saline was injected subcutaneously in the foot pad to induce edema [Winter, […]. and Nuss, G. W.: Proc. Soc. exp. […] Three hours after injection of carrageenin, the volume of the dexter limb was measured, and the edema volume was calculated by the difference between the volume after injection and the volume prior to injection.

[3] = target: T1, cyclooxygenase (Rattus norvegicus, UniProt Q63921); assay: Cyclooxygenase inhibitory activity (HHT formation from arachidonic acid in rat platelet-rich plasma); assay type: cell-based, rat (Jcl:wistar)
T1 construct: from tissue; host or cells: platelets in platelet-rich plasma from rat abdominal aorta blood (Jcl:wistar, male)
T1 sequence (Q63921 27-602): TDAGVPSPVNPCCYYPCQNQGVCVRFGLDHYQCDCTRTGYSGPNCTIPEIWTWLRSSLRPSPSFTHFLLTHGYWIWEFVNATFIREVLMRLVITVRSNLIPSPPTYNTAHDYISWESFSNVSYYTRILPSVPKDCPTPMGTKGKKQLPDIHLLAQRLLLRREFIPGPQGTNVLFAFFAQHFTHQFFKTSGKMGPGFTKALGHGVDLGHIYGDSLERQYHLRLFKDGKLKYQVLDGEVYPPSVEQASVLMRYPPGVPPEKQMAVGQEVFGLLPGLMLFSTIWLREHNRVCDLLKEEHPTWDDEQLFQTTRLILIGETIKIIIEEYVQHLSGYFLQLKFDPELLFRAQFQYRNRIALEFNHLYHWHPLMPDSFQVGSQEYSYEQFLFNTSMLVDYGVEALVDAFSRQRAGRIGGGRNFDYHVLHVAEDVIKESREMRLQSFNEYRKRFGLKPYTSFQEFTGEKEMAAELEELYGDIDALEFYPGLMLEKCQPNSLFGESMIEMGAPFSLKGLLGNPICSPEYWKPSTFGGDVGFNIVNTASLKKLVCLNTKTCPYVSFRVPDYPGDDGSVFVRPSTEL

[4] = test system: Mouse phenylquinone writhing; assay: Mouse phenylquinone writhing inhibitory activity; assay type: in vivo, mouse (Slc: ICR); conditions: Mus musculus, po, 20 min, 50 mg/kg, orally; read-out: Inhibitory percentage (phenylquinone writhing)
Procedure: Mouse Phenylquinone Writhing Inhibitory Activity A Slc: ICR male mouse (4 weeks, weight 17 to 24 g) was used. A test compound suspended in 5% gum arabic solution was administered orally. After 30 minutes, 0.1 ml/10 g body weight of 0.02% phenylquinone solution in water (dissolved by the aid of 5% ethanol) was injected intraperitoneally, and writhing and stretching responses of individual animals were measured for 20 minutes [Siegmund, E., Cadmus, R. and Lu, G.; Proc. Soc. exp. Biol. Med. 95, (1957)].

[5] = test system: ART (antigen-responding T-cell); assay: In vitro ART (antigen-responding T-cell) proliferation test; assay type: cell-based, Lewis rat; conditions: Rattus norvegicus, T-cell, read-out: % Inhibition of ART growth

In the case of `O=C(NCCCSc1ccncc1)c1ccccn1` [Example 42, 4-[3-(2-picolynoylamino)propylthio]pyridine], the “Antipyretic activity, peak time” value [1] is reported as 1 h, the “Antipyretic activity, .increment. °C.” value [1] is reported as -0.80 °C and the inhibition in vivo at 50 mg/kg [2] is reported as 34%. The IC50 [3] was 13.1 µM and the inhibition in vivo at 50 mg/kg [4] was 51%.

Work on `O=C(NCCCSc1ccncc1)c1ccncc1` [Example 43, 4-[3-(4-picolynoylamino)propylthio]pyridine] yielded an inhibition in vivo at 50 mg/kg [2] of 24%, an IC50 [3] of 13 µM and an inhibition in vivo at 50 mg/kg [4] of 48%.

In the case of `O=C(NCCCSc1ccncc1)c1cccs1` [Example 46, 4-[3-(2-thenoylamino)propylthio]pyridine], the “Antipyretic activity, peak time” value [1] is reported as 4 h, the “Antipyretic activity, .increment. °C.” value [1] is reported as -4.08 °C and the inhibition in vivo at 50 mg/kg [2] is reported as 39%. For the same compound, the IC50 [3] was 7.9 µM and the inhibition in vivo at 50 mg/kg [4] was 66%.

In the case of `O=C(NCCCSc1ccccn1)c1cccs1` [Example 47, 2-[3-(thenoylamino)propylthio]pyridine], the inhibition in vivo at 50 mg/kg [2] is reported as 25% and the inhibition in vivo at 50 mg/kg [4] is reported as 47%.

For `O=C(NCCCSc1ccncc1)c1ccsc1` [Example 54, 4-[3-(3-thiophenecarbonylamino)propylthio]pyridine], the “Antipyretic activity, peak time” value [1] was 5 h, the “Antipyretic activity, .increment. °C.” value [1] was -3.50 °C and the inhibition in vivo at 50 mg/kg [2] was 45%. The IC50 [3] was 9 µM and the inhibition in vivo at 50 mg/kg [4] was 58%.

Compound `O=C(Cc1cccs1)NCCCSc1ccncc1` [Example 55, 4-[3-(2-thienylacetylamino)propylthio]pyridine] has an inhibition in vivo at 50 mg/kg [2] of 41%, an IC50 [3] of 8.7 µM and an inhibition in vivo at 50 mg/kg [4] of 58%.

For `O=C(NCCCSc1ccncc1)c1cc2ccccc2s1` [Example 57, 4-[3-(thianaphtene-2-carbonylamino)propylthio]pyridine], the “Antipyretic activity, peak time” value [1] was 4 h, the “Antipyretic activity, .increment. °C.” value [1] was -1.28 °C and the inhibition in vivo at 50 mg/kg [2] was 35%. For the same compound, the IC50 [3] was 3.6 µM and the inhibition in vivo at 50 mg/kg [4] was 71%.

Work on `O=C(NCCCSc1ccncc1)c1cc(Br)c(Br)s1` [Example 58, 4-[3-(4,5-dibromothenoylamino)propylthio]pyridine] yielded an inhibition in vivo at 50 mg/kg [2] of 48%, an IC50 [3] of 7.9 µM and an inhibition in vivo at 50 mg/kg [4] of 34%.

Compound `Cc1ccc(C(=O)NCCCSc2ccncc2)s1` [Example 59, 4-[3-(5-methylthenoylamino)propylthio]pyridine] has an inhibition in vivo at 50 mg/kg [2] of 35%, an IC50 [3] of 3.5 µM and an inhibition in vivo at 50 mg/kg [4] of 49%.

Compound `O=C1c2ccccc2C(=O)N1CSc1cccnc1` [Example 63, 3-(phthalimidomethylthio)pyridine] has an inhibition in vivo at 50 mg/kg [2] of 34% and an inhibition in vivo at 50 mg/kg [4] of 56%.

In the case of `O=C1c2ccccc2C(=O)N1COc1ccncc1` [Example 65, 4-(phthalimidomethyloxy)pyridine], the “Antipyretic activity, peak time” value [1] is reported as 4 h, the “Antipyretic activity, .increment. °C.” value [1] is reported as -0.62 °C and the inhibition in vivo at 50 mg/kg [2] is reported as 39%. For the same compound, the inhibition in vivo at 50 mg/kg [4] was 80%.

For `O=C(N(CCCSc1ccncc1)Cc1cccs1)C(F)(F)F` [Example 68, 4-[3-[N-(2-thienylmethyl)-N-trifluoroacetylamino]propylthio]pyridine hydrochloride], the inhibition in vivo at 50 mg/kg [2] was 23% and the inhibition in vivo at 50 mg/kg [4] was 50%.

`CC(=O)N(CCCSc1ccncc1)Cc1cccs1` [Example 90] was tested, and the inhibition at 1 µM [5] was 34%, the inhibition at 10 µM [5] was 49% and the inhibition in vivo at 50 mg/kg [2] was 21%. It also gave an IC50 [3] of 4.9 µM and an inhibition in vivo at 50 mg/kg [4] of 53%.

For `O=C1c2ccccc2CN1CCCOc1ccncc1` [Example 101, 4-[3-(isoindolin-1-on-2-yl)propyloxy]pyridine], the inhibition at 1 µM [5] was 39%, the inhibition at 10 µM [5] was 12% and the inhibition in vivo at 50 mg/kg [2] was 26%. It also gave an IC50 [3] of 3.2 µM and an inhibition in vivo at 50 mg/kg [4] of 66%.

`O=C1c2ccccc2CN1CCSc1ccncc1` [Example 105, 4-[2-(isoindolin-1-on-2-yl)ethylthio]pyridine] gave an inhibition at 1 µM [5] of -4%, an inhibition at 10 µM [5] of -49% and an inhibition in vivo at 50 mg/kg [2] of 31%. It also gave an IC50 [3] of 5.1 µM and an inhibition in vivo at 50 mg/kg [4] of 59%.

For `O=C1c2ccccc2C(O)N1CCCSc1ccncc1` (stereo not shown) [Example 110, 4-[3-(3-hydroxyisoindolin-1-on-2-yl)propylthio]pyridine], the inhibition at 1 µM [5] was -21%, the inhibition at 10 µM [5] was 1% and the inhibition in vivo at 50 mg/kg [2] was 44%. The IC50 [3] was 11 µM.

With `CNC(=O)c1ccccc1C(=O)NCSc1ccncc1` [Example 112, 4-[(2-methylcarbamoylbenzoyl)aminomethylthio]pyridine] the “Antipyretic activity, peak time” value [1] was 3 h, the “Antipyretic activity, .increment. °C.” value [1] was -1.58 °C and the inhibition in vivo at 50 mg/kg [2] was 42%. The IC50 [3] was 13 µM.

`Cl.O=C1c2ccccc2C(=O)N1CCCOc1ccncc1` [Example 113, 4-(3-phthalimidopropyloxy)pyridine hydrochloride] was tested, and the “Antipyretic activity, peak time” value [1] was 4 h, the “Antipyretic activity, .increment. °C.” value [1] was -0.82 °C and the inhibition in vivo at 50 mg/kg [2] was 35%.

With `O=C1c2ccccc2C(=O)N1CCCCOc1ccncc1` [Example 114, 4-(4-phthalimidobutyloxy)pyridine hydrochloride] the “Antipyretic activity, .increment. °C.” value ([1]; hydrochloride) was -1.14 °C, the “Antipyretic activity, peak time” value ([1]; hydrochloride) was 4 h and the inhibition in vivo at 50 mg/kg [2] was 28%.

With `Cl.O=C1c2ccccc2C(=O)N1COc1ccncc1` [Example 116, 4-phthalimidomethyloxypyridine hydrochloride] the “Antipyretic activity, peak time” value [1] was 3 h, the “Antipyretic activity, .increment. °C.” value [1] was -0.63 °C and the inhibition at 1 µM [5] was 10%. For the same compound, the inhibition at 10 µM [5] was 31% and the “Inhibitory percentage (carrageenin pedal edema)” value [2] was 45%.

`Cl.Cl.O=C(NCCCOc1ccncc1)c1ccccn1` [Example 126, 4-[3-(2-picolinoylamino)propyloxy]pyridine dihydrochloride] was tested, and the “Antipyretic activity, peak time” value [1] was 2 h, the “Antipyretic activity, .increment. °C.” value [1] was -1.21 °C and the inhibition in vivo at 50 mg/kg [2] was 30%.
